Source: paper PMC6143625, “A high throughput screen for next-generation leads targeting malaria parasite transmission” (Nature Communications, 2018)

Legend:
[1] = tested on: P. falciparum stage V male gametocytes (male gamete formation); assay: P. falciparum dual gamete formation assay (Pf DGFA), male readout (exflagellation), 48 h carry-over format; type: cell-based, Plasmodium falciparum NF54; conditions: Plasmodium falciparum, 48 h incubation; for IC50: 48 h, dose response retest of primary hits, read-out: Male IC50; for inhibition at 2 µM: primary screen, single replicate
[2] = tested on: P. falciparum stage V female gametocytes (female gamete formation); assay: P. falciparum dual gamete formation assay (Pf DGFA), female readout (Pfs25 expression), 48 h carry-over format; type: cell-based, Plasmodium falciparum NF54; conditions: Plasmodium falciparum, 48 h incubation; for IC50: 48 h, dose response retest of primary hits, read-out: Female IC50; for inhibition at 2 µM: primary screen, single replicate
[3] = tested on: P. falciparum 3D7 asexual blood stages; assay: Whole-cell time extended asexual growth assay (pLDH); type: cell-based; conditions: Plasmodium falciparum, 72 h; for IC50: dose response retest, read-out: IC50 (µM) Asex stages; for inhibition at 2 µM: primary screen, read-out: %Inh Asex stages @2uM
Procedure: Asexual activity was assayed via Plasmodium lactate dehydrogenase activity (pLDH), a surrogate of asexual parasite growth. […] 2 µM artesunate and DMSO were used as the positive and negative controls, respectively. […] After plate mixing, NBT reduction was measured by absorbance at 650 nm using Envision (Perkin Elmer).

HepG2 human cells = tested on: HepG2 human cells; parameters: method as in http://dx.doi.org/10.6019/CHEMBL3507680; conditions: ref http://dx.doi.org/10.6019/CHEMBL3507680; cited from earlier work

Structure (SMILES)	IC50 [1] [µM]	inhibition at 2 µM [1] [%]	IC50 [2] [µM]	inhibition at 2 µM [2] [%]	IC50 [3] [µM]	inhibition at 2 µM [3] [%]	%Inh HepG2 @10uM (HepG2 human cells) [%]
COc1ccc(NC(=O)Cn2nc(C)c(C(C)=O)c2C)cc1 [DDD01027600]	1.24	47.3	5.56	< 30	0.298	73.1	2.67
Cc1cccnc1[C@H](C)Nc1nc(-c2cccnc2)nc2c1CNC2 [DDD01248607]	–	–	–	–	3.44	50	-8.07
CC(C)Cc1ncc2c(n1)CN(c1nccc(NC(C)C)n1)C2 [DDD01249567]	–	–	–	–	1.4	92.8	2.52
Cc1cccc2[nH]c(-c3cn(C4CCNCC4)nn3)nc12 [DDD01250141]	–	–	–	–	3.82	34.6	-3.11
CCc1[nH]c2c(CNc3cc(C)nc(NC)n3)cc(C)cc2c1C [DDD01250162]	–	–	–	–	1.2	55.3	98.31
CCCc1nc(N(C)CCN2CCCCCC2)c2cnn(C)c2n1 [DDD01250696]	–	–	–	–	5.78	32.1	-11.00
Cc1cc2nc(-c3cn(C4CCNCC4)nn3)[nH]c2cc1C [DDD01250700]	–	–	–	–	2.49	60.9	-2.26
Cc1cnccc1NCCNC1CCN(CC(C)C)CC1 [DDD01251125]	–	–	–	–	1.35	98.4	2.02
Cc1nc(-c2cc(Cl)cc3c2OC(CN)C3)c[nH]1 (centres unmarked) [DDD01251343]	–	–	–	–	1.97	52.6	11.09
CCc1[nH]c2c(CNc3nc(C)cc(NC)n3)cc(C)cc2c1C [DDD01251782]	–	–	–	–	1.78	97.5	99.91
O=C(NCc1cnn2cccnc12)c1cccc(CC2CCNCC2)c1 [DDD01252275]	–	–	–	–	2.46	33	5.06
Cc1cccnc1C(Nc1nccc(C2CCCC2)n1)C1CC1 (centres unmarked) [DDD01252324]	–	–	–	–	1.71	73.4	0.36
NCC1CCN(C2CCN(c3ccc(-c4ccco4)cc3)CC2)C1 (centres unmarked) [DDD01252361]	1.12	94.8	3.62	64	1.73	68.3	101.96
COc1cccc(OC)c1CN1CC(=O)N(c2ccc(C)cc2)CC1C (centres unmarked) [DDD01252418]	–	–	–	–	5.59	31.8	1.44
CCOc1cccc(CN2CCCC(Nc3ccc(F)cc3)C2)c1O (centres unmarked) [DDD01252745]	–	–	–	–	3.07	42.7	-6.06
CNc1cc(C)nc(N2Cc3cnn(Cc4ccc(F)cc4)c3C2)n1 [DDD01252874]	–	–	–	–	2.61	45.8	11.36
Cc1nc(NCCSc2ccccn2)c2c(C)noc2n1 [DDD01253053]	–	–	–	–	4.44	38.4	-4.96
NCC1Cc2cc(-c3nccc(N4CCC(O)CC4)n3)cc(F)c2O1 (centres unmarked) [DDD01254054]	–	–	–	–	4.81	76.3	6.33
CCCc1cncnc1N1CCC(NCc2cc3ccccc3[nH]2)CC1 [DDD01254125]	–	–	–	–	2.43	35.4	8.09
CNc1nc(C)cc(NC2CCCN(C3Cc4ccccc4C3)C2)n1 (centres unmarked) [DDD01254555]	–	–	–	–	1.97	91.2	14.91
Cc1noc(C)c1CN(C)c1nc(C2CCCC2)nc2c1cnn2C [DDD01254835]	–	–	–	–	2.56	57.1	9.62

Structure (SMILES)	IC50 [1] [µM]	inhibition at 2 µM [1] [%]	IC50 [2] [µM]	inhibition at 2 µM [2] [%]	IC50 [3] [µM]	inhibition at 2 µM [3] [%]	%Inh HepG2 @10uM (HepG2 human cells) [%]
CNC(=O)c1cn2cc(-c3ccccc3Cl)n(CC=C(C)C)c(=O)c2n1 [DDD01255495]	–	–	–	–	6.64	43.8	35.09
Cc1cnc(C)c(N2CCN(CCCc3ccncc3)CC2)n1 [DDD01256723]	–	–	–	–	3.29	48	6.37
NCC(=O)N1CCCC1c1ccc(C(=O)NCc2ccoc2)s1 (centres unmarked) [DDD01257217]	–	–	–	–	2.73	34.1	-2.34
CSCCNC(=O)c1ccc(OC2CCN(CC(C)(C)C)CC2)c(Cl)c1 [DDD01257510]	–	–	–	–	5.38	38.4	-7.80
Cc1nc[nH]c1CN(C)CC1CCCN(CCc2ccc(Cl)cc2)C1 (centres unmarked) [DDD01257555]	–	–	–	–	2.44	66.5	20.49
COc1cccc(CN2CCCC(Nc3cccc(F)c3)C2)c1O (centres unmarked) [DDD01257695]	–	–	–	–	2.56	55.2	-4.92
CN(Cc1cccc(O)c1)CC1CCCN(CCc2ccc(Cl)cc2)C1 (centres unmarked) [DDD01257948]	–	–	–	–	1.79	92.9	10.17
CCC1CN(C(=O)c2ccc(Cl)cc2O)CCN1C(C)C (centres unmarked) [DDD01258121]	–	–	–	–	2.83	48.6	-6.93
CCc1c(C)nc2cc(C3CCN(Cc4ccccc4F)C3)nn2c1O (centres unmarked) [DDD01270117]	–	–	–	–	6.27	43.5	-2.56
Cc1cc(C)n(C2CN(CC(O)c3cc(F)ccc3F)C2)n1 (centres unmarked) [DDD01298957]	–	–	–	–	1.27	74.5	6.16
CCNC(=O)C(C)NC(=O)c1cnc(-c2ccc(C)cc2C)s1 (centres unmarked) [DDD01300473]	–	–	–	–	2.86	37	1.57
Cc1nc2ccccc2nc1CN1CCCC1Cn1cccn1 (centres unmarked) [DDD01301355]	–	–	–	–	8.56	31	20.57
CN(Cc1ncc(C(C)(C)C)o1)CC1CCCN1c1cccnn1 (centres unmarked) [DDD01301524]	–	–	–	–	5.73	31.2	23.44
CC(C)c1cc(NC(=O)c2ccc(C(=O)NC(C)(C)C)cc2)[nH]n1 [DDD01301645]	–	–	–	–	4.02	33.2	-4.05
CCC(C)(C)NC(=O)CN(C)C(c1cccc(F)c1)c1ccccn1 (centres unmarked) [DDD01301778]	–	–	–	–	6.7	30.8	0.64
Cc1ccc(Cl)cc1N1CCC(CNC(=O)CCn2ccnc2)C1 (centres unmarked) [DDD01302767]	–	–	–	–	3.83	33.8	-10.10
COc1ccc(CNCC2CCN(CC(C)O)CC2)c2ccccc12 (centres unmarked) [DDD01302860]	–	–	–	–	2.69	39.2	29.84
Cc1cc(C)n(C2CN(CC(O)c3ccc4c(c3)OCO4)C2)n1 (centres unmarked) [DDD01303662]	–	–	–	–	7.81	40.2	-2.16
CC(C)c1nn(C)c(Cl)c1CNCC(O)c1cccc(F)c1.Cl (centres unmarked) [DDD01304823]	–	–	–	–	3.62	34.2	-10.30
Cc1nc(CN2CCCC(N(C)Cc3c(C)noc3C)C2)no1 (centres unmarked) [DDD01304956]	–	–	–	–	3.93	31.2	10.61
O=C1CCCCN1c1cccc(CNC2CCCC2)c1 [DDD01305031]	–	–	–	–	6.03	31.2	-17.90
